The target of the experiment is T1, HGFR (His6-HGFR cytoplasmic domain) (Homo sapiens, UniProt P08581).
T1 construct: made in house; host or cells: Spodoptera frugiperda Sf9 insect cells (baculovirus, pFastBac-HT)
T1 sequence (P08581 956-1390 limits assumed): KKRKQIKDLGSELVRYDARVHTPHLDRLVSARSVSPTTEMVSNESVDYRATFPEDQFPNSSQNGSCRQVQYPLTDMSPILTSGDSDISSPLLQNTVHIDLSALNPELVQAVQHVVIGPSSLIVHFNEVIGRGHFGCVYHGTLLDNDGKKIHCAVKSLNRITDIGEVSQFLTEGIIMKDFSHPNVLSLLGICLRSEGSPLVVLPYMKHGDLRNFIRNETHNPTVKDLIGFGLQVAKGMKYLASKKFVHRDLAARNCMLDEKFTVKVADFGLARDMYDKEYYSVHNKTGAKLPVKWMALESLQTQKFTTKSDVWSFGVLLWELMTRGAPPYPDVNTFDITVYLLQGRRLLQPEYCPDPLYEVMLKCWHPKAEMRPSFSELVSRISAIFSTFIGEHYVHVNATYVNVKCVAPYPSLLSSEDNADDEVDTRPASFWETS
The experiment in a line: Inhibitory activity against HGFR tyrosine kinase activity (HTRF). The class given is biochemical. The following applies: biotin-poly(GT), ATP, 30° C. 10 min, read-out: IC50 (concentration necessary to inhibit HGFR kinase activity by 50%). An excerpt:
The cytoplasmic domain of HGFR (Genbank Accession No. J02958) is a 1.3 kb DNA fragment beginning with Lys974 and including a stop codon, and described by Park et al. (Proc. Natl. Acad. Sci. U.S.A. 84(18), 6379-6383, 1987). The DNA fragment was isolated from the human placental cDNA library (purchased from Clontech) by PCR (TaKaRa Ex Taq™ Kit, purchased from TaKaRa) using two kinds of primers (SEQ ID NO: 1, 5′-[…]-3′ and SEQ ID NO: 2, 5′-[…]-3′, purchased from Invitrogen). The DNA fragment was cloned into a baculovirus transplace vector (pFastBac™-HT (purchased from GIBCO BRL)) to produce a recombinant construct. The construct was transfected into insect cells (Spodoptera frugiperda 9 (Sf9)) to produce a solution of HGFR transfected baculovirus (preparation of a recombinant baculovirus can be found in the standard text (Bac-to-Bac Baculovirus Expression System (GIBCO BRL)). The cloning of the other receptor tyrosine kinases and preparation of the recombinant baculovirus solutions were performed using a cytoplasmic fragment starting from Lys791 (VEGFR2, Genbank Accession No. L04947), a cytoplasmic fragment starting from Lys398 (FGFR1, Genbank Accession No. X52833) and a cytoplasmic fragment starting from Lys558 (PDGFRβ, Genbank Accession No. M21616) in stead of HGFR in the above method. EGFR was purchased from Sigma (Production No. E-2645).
To the suspension of Sf9 cells (3×10^8 cells) in SF-900II medium (purchased from Invitrogen) containing 2% FBS was added a solution of HGFR transfected baculovirus above (4 ml), followed by a shaking culture at 27° C. for 48 hrs. The cells infected with the HGFR transfected baculovirus were centrifuged at 1,000 rpm, 4° C. for 5 min to remove the supernatant. The precipitated infected cells were suspended in 80 ml of ice-cold PBS, and centrifuged at 1,000 rpm, 4° C. for 5 min to remove the supernatant. The precipitated infected cells were suspended in 40 ml of ice-cold Lysis Buffer (50 mM Tris-HCl (pH 8.5), 5 mM 2-mercaptoethanol, 100 mM KCl, 1 mM PMSF and 1% (v/v) NP-40). The suspension was centrifuged at 12,000 rpm, 4° C. for 30 min to provide a supernatant.
The supernatant was loaded onto an Ni-NTA agarose column (3 ml, purchased from Qiagen) equilibrated with 30 ml of Buffer A (20 mM Tris-HCl (pH 8.5), 5 mM 2-mercaptoethanol, 500 mM KCl, 20 mM imidazole and 10% (v/v) glycerol). The column was washed with 30 ml of Buffer A, 6 ml of Buffer B (20 mM Tris-HCl (pH 8.5), 5 mM 2-mercaptoethanol, 1 M KCl, and 10% (v/v) glycerol) and 6 ml of Buffer A in this order. Then, the column was eluted with 6 ml of Buffer C (20 mM Tris-HCl (pH 8.5), 5 mM 2-mercaptoethanol, 100 mM KCl, 100 mM imidazole, and 10% (v/v) glycerol) to provide a fraction. The fraction was entrapped in a dialysis membrane (purchased from Spectrum Laboratories), dialyzed at 4° C. overnight with 1 L of dialysis buffer (20 mM Tris-HCl (pH 7.5), 10% (v/v) glycerol, 1 mM dithiothreitol, 0.1 mM Na3VO4 and 0.1 mM EGTA), and stored at −80° C. until used. An aliquot of the dialyzed fraction was subjected to SDS electrophoresis, and then a recombinant protein (His6-HGFR, the HGFR cytoplasmic domain fused with six histidine at the N terminus) detected at a molecular weight of about 60 kDa when stained with Coomassie Brilliant Blue, was determined with regard to protein content using BSA (purchased from Sigma) as a standard. The VEGFR2 cytoplasmic domain, the FGFR1 cytoplasmic domain, and the PDGFRβ cytoplasmic domain were fused with six histidine at the N terminus by the similar method to produce respective recombinant proteins (His6-VEGFR2, His6-FGFR1, and His6-PDGFRβ). […]
On to `O=C(Cc1ccc(F)cc1)NC(=S)Nc1ccc(Oc2cc(NC(=O)N3CCOCC3)ncn2)c(F)c1` [Example 4, Morpholine-4-carboxylic acid [6-[2-fluoro-4-{3-[2-(4-fluorophenyl)acetyl]thioureido}phenoxy)pyrimidin-4-yl]amide], for which the IC50 came to 30 nM.
As for `O=C(Cc1ccc(F)cc1)NC(=S)Nc1ccc(Oc2cc(NC(=O)N3CCCCC3)ncn2)c(F)c1` [Example 6, Piperidine-1-carboxylic acid [6-(2-fluoro-4-{3-[2-(4-fluorophenyl)acetyl]thioureido}phenoxy)pyrimidin-4-yl]amide], the figure is 60 nM; as for `CN(C)C(=O)Nc1cc(Oc2ccc(NC(=S)NC(=O)Cc3ccc(F)cc3)cc2F)ncn1` [Example 7, 3-[6-(2-Fluoro-4-{3-[2-(4-fluorophenyl)acetyl]thioureido}phenoxy)pyrimidin-4-yl]-1,1-dimethylurea], 18 nM.
As for `O=C(Cc1ccccc1)NC(=S)Nc1ccc(Oc2cc(NC(=O)N3CCC(N4CCCC4)CC3)ncn2)c(F)c1` [Example 8, 4-(Pyrrolidin-1-yl)piperidine-1-carboxylic acid {6-[2-fluoro-4-(3-phenylacetylthioureido)phenoxy]pyrimidin-4-yl}amide], the IC50 was 83 nM.
In the case of `CN(C)C(=O)Nc1cc(Oc2ccc(NC(=S)NC(=O)CC3CCCCC3)cc2F)ccn1` [Example 16, 2-[(Dimethylamino)carbonylamino]-4-{2-fluoro-4-[3-(2-cyclohexylacetylthio)ureido]phenoxy}pyridine], the IC50 is 56 nM.
As for `CN(C)C1CCN(C(=O)Nc2cc(Oc3ccc(NC(=S)NC(=O)Cc4ccccc4)cc3F)ccn2)CC1` [Example 38, 2-{[4-(Dimethylamino)piperidin-1-yl]carbonylamino}-4-{2-fluoro-4-[3-(2-phenylacetyl)thioureido]phenoxy}pyridine], the figure is 26 nM; as for `O=C(Cc1ccccc1)NC(=S)Nc1ccc(Oc2ccnc(NC(=O)N3CCC(N4CCC4)CC3)c2)c(F)c1` [Example 39, 2-{[4-(Azetidin-1-yl)piperidin-1-yl]carbonylamino}-4-{2-fluoro-4-[3-(2-phenylacetyl)thioureido]phenoxy}pyridine], 50 nM.
As to `O=C(Cc1ccccc1)NC(=O)Nc1ccc(Oc2cc(NC(=O)N3CCCC3)ncn2)c(F)c1` [Example 46, Pyrrolidine-1-carboxylic acid {6-[2-fluoro-4-(3-phenylacetylureido)phenoxy]pyrimidin-4-yl}amide], the IC50 came to 45 nM.
As for `O=C(Cc1ccccc1)NC(=O)Nc1ccc(Oc2ccnc(NC(=O)N3CCCC3)c2)cc1Cl` [Example 47, Pyrrolidine-1-carboxylic acid {4-[3-chloro-4-(3-phenylacetylureido)phenoxy]pyridin-2-yl}amide], the figure is 100 nM.
For `CCN(CC)CCCN(C)C(=O)Nc1cc(Oc2ccc(NC(=O)NC(=O)Cc3ccccc3)cc2F)ccn1` [Example 49, 1-(3-Diethylaminopropyl)-3-{4-[2-fluoro-4-(3-phenylacetylureido)phenoxy]pyridin-2-yl}-1-methylurea] the value was 210 nM.
For `CN(C)C(=O)Nc1cc(Oc2ccc(NC(=O)NC(=O)Cc3ccc(F)cc3)cc2F)ncn1` [Example 51, 3-[6-(2-Fluoro-4-{3-[2-(4-fluorophenyl)acetyl]ureido}phenoxy)pyrimidin-4-yl]-1,1-dimethylurea] the value was 18 nM; for `CN(C)C(=O)Nc1cc(Oc2ccc(NC(=O)NC(=O)Cc3ccccc3)c(F)c2)ccn1` [Example 54, 3-{4-[3-Fluoro-4-(3-phenylacetylureido)phenoxy]pyridin-2-yl}-1,1-dimethylurea], 43 nM; for `O=C(CC(=O)Nc1ccc(F)cc1F)Nc1ccc(Oc2ccnc(NC(=O)N3CCCC3)c2)c(F)c1` [Example 57, N-(3-Fluoro-4-{2-[(pyrrolidine-1-carbonyl)amino]pyridin-4-yloxy}phenyl)-N′-(2,4-difluorophenyl)malonamide], 48 nM.

The record behind these values is patent US20070270421A1, “Novel pyridine Derivative and Pyrimidine Derivative (1)” (priority 2004, published 2007).
